Laboratory results taken from publication PMC4453552 (mBio, 2015).
Like-named read-outs stand apart in the source and are kept apart here.

How the values were obtained:
N-Flo1p [1] = biological target: T1, N-Flo1p (Saccharomyces cerevisiae, UniProt P32768); assay: AFM force spectroscopy of glycosylated N-Flo1p self-binding; details: Tris solution with 20 mM EDTA and 100 mM mannose
T1 sequence (P32768 25-271 limits assumed): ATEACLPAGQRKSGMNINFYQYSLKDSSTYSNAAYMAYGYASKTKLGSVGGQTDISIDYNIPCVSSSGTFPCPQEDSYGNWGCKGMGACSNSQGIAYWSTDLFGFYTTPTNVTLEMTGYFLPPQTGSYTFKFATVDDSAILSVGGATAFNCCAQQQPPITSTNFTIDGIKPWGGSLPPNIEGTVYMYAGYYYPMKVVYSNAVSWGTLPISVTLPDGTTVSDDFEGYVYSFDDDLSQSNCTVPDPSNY

N-Flo1p [2] = biological target: T2, N-Flo1p (Saccharomyces cerevisiae, UniProt P32768); assay: Fluorescence titration of carbohydrates with nonglycosylated N-Flo1p; assay type: binding
T2 sequence (P32768 23-271): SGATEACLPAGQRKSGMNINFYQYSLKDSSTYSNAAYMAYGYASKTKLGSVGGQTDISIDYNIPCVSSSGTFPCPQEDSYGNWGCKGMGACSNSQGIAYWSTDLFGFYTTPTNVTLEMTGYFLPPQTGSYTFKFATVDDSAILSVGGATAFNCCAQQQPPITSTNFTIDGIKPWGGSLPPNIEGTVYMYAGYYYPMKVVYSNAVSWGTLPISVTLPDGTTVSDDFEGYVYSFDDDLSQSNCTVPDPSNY

N-Flo5p = details: cited from earlier work
N-Lg-Flo1p [3] = biological target: T3, N-Lg-Flo1p (Saccharomyces pastorianus, UniProt B3IUB3, P58Q); assay: Fluorescence titration of carbohydrates with N-Lg-Flo1p; assay type: binding; details: construct from the CBS1513 strain
T3 sequence (B3IUB3 23-213 P58Q): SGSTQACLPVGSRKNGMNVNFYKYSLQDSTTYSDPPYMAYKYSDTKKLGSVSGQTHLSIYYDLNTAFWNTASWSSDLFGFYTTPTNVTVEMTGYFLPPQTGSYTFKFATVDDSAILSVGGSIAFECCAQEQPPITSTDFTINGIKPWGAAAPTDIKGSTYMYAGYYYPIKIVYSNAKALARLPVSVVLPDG

N-Lg-Flo1p [4] = biological target: T3, N-Lg-Flo1p; details: cited from earlier work
N-Flo1p [5] = biological target: T1, N-Flo1p; assay: N-Flo1p self-binding by surface plasmon resonance; details: SPR, in the presence of Ca2+
[6] = read-out: Equilibrium dissociation constant (KD) N-Flo1p, fluorescence titration, nonglycosylated N-Flo1p, this work (footnote a)

Question: With O=C(O)CN(CCN(CC(=O)O)CC(=O)O)CC(=O)O [EDTA] as the molecule, how does the “Effect on unbinding events of N-Flo1p self-binding” value (N-Flo1p [1]) read?
Answer: The value was “longer-distance events disappeared almost completely”.

Question: With OC[C@H]1OC(O)[C@H](O)[C@@H](O)[C@@H]1O (some centres unmarked) [Glc, glucose] as the molecule, how does the “Affinity / interaction with N-Flo1p, in words” value (N-Flo1p [2]; fluorescence titration) read?
Answer: The value was “very weakly”.

Question: What about the “Binding to N-Flo5p, in words” value (N-Flo5p) of the same molecule?
Answer: Its value is “very weakly”.

Question: What does the source list for OC[C@H]1OC(O)[C@@H](O)[C@@H](O)[C@@H]1O (stereo partly drawn) [M (Man), D-mannose]?
Answer: Kd (N-Flo1p [2]): 8.7 ± 0.43 mM; Affinity / interaction with N-Flo1p, in words (N-Flo1p [2]; fluorescence titration, listed as D-mannose): low-millimolar range; Affinity / interaction with N-Flo1p, in words (N-Flo1p [2]; fluorescence titration, listed as mannose): millimolar range; KD range for N-Lg-Flo1p, in words (N-Lg-Flo1p [3]): high micromolar range

Question: With OC[C@H]1O[C@H](O[C@@H]2C(O)O[C@H](CO)[C@@H](O)[C@@H]2O)[C@@H](O)[C@@H](O)[C@@H]1O (stereo partly drawn) [Mα-1,2-M, α-1,2-mannobiose] as the molecule, how does the “Fold difference in binding between the mono- and disaccharides (N-Flo1p)” value (N-Flo1p [2]; α-1,2-mannobiose versus D-mannose) read?
Answer: Its value is 10 fold.

Question: For OC[C@H]1O[C@H](O[C@H]2[C@H](O)[C@@H](CO)OC(O)[C@H]2O)[C@@H](O)[C@@H](O)[C@@H]1O (stereo partly drawn) [Mα-1,3-M, α-1,3-linked mannobiose], which Kd (N-Flo1p [2]; [6]) is on record?
Answer: The Kd was 3.3 ± 0.34 mM.

Question: What about the “Binding to N-Flo5p, in words” value (N-Flo5p) of the same molecule?
Answer: Its value is “No binding”.

Question: For OC[C@H]1O[C@H](OC[C@H]2OC(O)[C@@H](O)[C@@H](O)[C@@H]2O)[C@@H](O)[C@@H](O)[C@@H]1O (stereo partly drawn) [Mα-1,6-M, α-1,6-linked mannobiose], which Kd (N-Flo1p [2]; [6]) is on record?
Answer: Its Kd is 6.9 ± 0.64 mM.

Question: What about the “Binding to N-Flo5p, in words” value (N-Flo5p) of the same molecule?
Answer: The value was “No binding”.

Question: With O=P(O)(O)OC1O[C@H](CO)[C@@H](O)[C@H](O)[C@@H]1O (some centres unmarked) [mannose-1-phosphate] as the molecule, how does the “Affinity for N-Lg-Flo1p, in words” value (N-Lg-Flo1p [4]) read?
Answer: The value was “micromolar-affinity”.

B1: N-deglycosylated N-Flo1p: N-Flo1p after removal of the N-glycans with endo-β-N-acetylglucosaminidase H (protein)
chain: T2 sequence (P32768 23-271)
modifications: N-glycans removed with EndoH (GlcNAc residues remain); O-glycans (5 or 6 mannoses) present
Question: For B1, which “Binding of N-deglycosylated N-Flo1p to immobilized N-deglycosylated N-Flo1p” value (N-Flo1p [5]) is on record?
Answer: Its value is “almost no binding”.
